This is an account of results in article PMC11878239, “Biochemical investigations using mass spectrometry to monitor JMJD6-catalysed hydroxylation of multi-lysine containing bromodomain-derived substrates” (RSC Chemical Biology, 2025).

For data set [1], the system named is KDM4C. Also on record: method as in PMID 21859681. To be noted: KDM4C (0.5 μM); SPE-MS; cited from earlier work.
Data set [2] concerns PHD2. Further details: method as in PMID 18952043. To be noted: PHD2 (1.0 nM); FRET assay; cited from earlier work.
Data set [3] has as its target T1, full-length His6-JMJD6 (Homo sapiens, UniProt Q6NYC1).
T1 construct: An enzyme mixture (10 μL) containing full-length His6-JMJD6 (5 μM; final concentration: 0.05 μM); made in house; host or cells: Escherichia coli BL21 (DE3), pET-28a(+) plasmid
The experiment in a line: SPE-MS time-course of JMJD6-catalysed hydroxylation of BRD-derived peptides. The format is biochemical. The settings on record: 0.05 μM JMJD6, 2 μM peptide, 2OG 200 μM, FAS 2 μM, LAA 100 μM, Tris 50 mM pH 7.5; for number of hydroxylation products observed (+16 Da mass shifts): initial time-course, n = 3; for hydroxylation by JMJD6 (in words): time-course, SPE-MS. On the procedure: Fig. 2 JMJD6-catalysed hydroxylation of homologous 40 mer peptides derived from bromodomain-containing proteins BRD2, BRD3, and BRD4. (a)–(c) Red MS spectra: JMJD6-catalysed hydroxylation after 10 min of (a) BRD2_520–559, (b) BRD3_463–502, and (c) BRD4_511–550. Black MS spectra: no enzyme controls. (d)–(f) JMJD6-catalysed hydroxylation of (d) BRD2_520–559, (e) BRD3_463–502, and (f) BRD4_511–550 showing the relative abundance of the non-hydroxylated substrate (orange circles), mono-hydroxylated product (green squares), di-hydroxylated product (purple triangles) and tri-hydroxylated product (light blue diamonds) over time. Data are means of three independent runs (n = 3; means ± SD).
(§1) The JMJD6-catalysed hydroxylation of the BRD-derived substrate peptide was monitored at ambient temperature by SPE-MS using a RapidFire RF 365 high-throughput sampling robot (Agilent) attached to an iFunnel Agilent 6550 accurate mass quadrupole time-of-flight (Q-TOF) mass spectrometer, which was operated in the positive ionization mode. Assay samples were aspirated under vacuum for 0.4 s, then loaded onto a C4 solid phase extraction (SPE) cartridge. After loading, the C4 SPE cartridge was washed with 0.1%v/v aqueous formic acid to remove non-volatile buffer salts (5 s, 1.5 mL min^−1). The peptide was eluted from the SPE cartridge with 0.1%v/v aqueous formic acid in 75/25v/v acetonitrile/water into the mass spectrometer (5 s, 1.6 mL min^−1) and the SPE cartridge re-equilibrated with 0.1%v/v aqueous formic acid (1 s, 1.25 mL min^−1).
Peaks corresponding to the m/z +5 charge states of the BRD-derived substrate peptide and the hydroxylated product peptides were extracted from the ion chromatogram and integrated using RapidFire Integrator 4.3.0 (Agilent). Peak area data were exported into Microsoft Excel and used to calculate the relative abundance of the mono-hydroxylated product peptide using the following equation:
% of mono-hydroxylated product peptide = 100 × (integral of mono-hydroxylated product peptide)/(integral of non-hydroxylated substrate peptide + sum of integrals of all hydroxylated product peptides). Note that for the time-period used to calculate initial reaction velocities, negligible amounts of multi-hydroxylated product peptide were observed (<5%); therefore, the sum of integrals of all hydroxylated product peptides ≈ the integral of the mono-hydroxylated product peptide.

The target of data set [4] is T1, full-length His6-JMJD6. Briefly: SPE-MS kinetics of JMJD6-catalysed lysyl hydroxylation (2OG, Fe(II), LAA, BRD-derived peptides). The format is biochemical. The settings on record: for K m: read-out: Michaelis constant Km (K^app m); for turnover number kcat (k^app cat) / catalytic efficiency kcat/Km: pH 7.5, n = 3; for turnover number kcat (k^app cat): calculated from v^app max assuming active JMJD6 = total enzyme; for substrate inhibition of JMJD6 catalysis: high substrate concentrations (>2 μM). The method, then: Recombinant human JMJD6 (full length with a N-terminal His6-tag) was produced in Escherichia coli BL21 (DE3) cells using a pET-28a(+) plasmid and purified by standard Ni(II)-affinity size-exclusion chromatography, as previously reported.[40] […] Purified JMJD6 was stored at −78 °C; fresh aliquots were used for all JMJD6 assays.
Peptides were used as 10 mM stock solutions in DMSO (Sigma-Aldrich; BioUltra grade).
Assay samples were aspirated under vacuum for 0.4 s, then loaded onto a C4 solid phase extraction (SPE) cartridge. After loading, the C4 SPE cartridge was washed with 0.1%v/v aqueous formic acid to remove non-volatile buffer salts (5 s, 1.5 mL min^−1). The peptide was eluted from the SPE cartridge with 0.1%v/v aqueous formic acid in 75/25v/v acetonitrile/water into the mass spectrometer (5 s, 1.6 mL min^−1) and the SPE cartridge re-equilibrated with 0.1%v/v aqueous formic acid (1 s, 1.25 mL min^−1).
Peaks corresponding to the m/z +5 charge states of the BRD-derived substrate peptide and the hydroxylated product peptides were extracted from the ion chromatogram and integrated using RapidFire Integrator 4.3.0 (Agilent). Peak area data were exported into Microsoft Excel and used to calculate the relative abundance of the mono-hydroxylated product peptide using the following equation: […]
The concentration of the mono-hydroxylated product peptide was calculated by multiplying the %-fraction of the mono-hydroxylated product peptide by the initial concentration of the substrate peptide employed in the assay. Initial reaction velocities were then calculated and fitted to a Michaelis–Menten plot using nonlinear regression (GraphPad Prism 5).

A short description of data set [5]: retention on SPE cartridges. It is filed as physicochemical. To be noted: C4 SPE cartridge.
Text: as §1

Data set [6] concerns NO66_183–641. Further details: method as in PMID 34843649. The settings on record: NO66_183–641 (0.3 μM); SPE-MS; cited from earlier work.
Where [7] appears, read: BRD peptide substrate varied, 0.05 μM full-length His6-JMJD6, 2OG 200 μM, FAS 2 μM, LAA 100 μM, 50 mM Tris pH 7.5, ambient temperature, substrate inhibition fit, mean ± SD n = 3.
The mark [8] stands for this setting: BRD peptide substrate varied, 0.05 μM full-length His6-JMJD6, 2OG 200 μM, SPE-MS.

Entries after “also recorded” stand apart in the source; their conditions may differ. Non-standard residues stand in square brackets, D forms with d. No end group written: not given here. *: point of attachment. Biotin = O=C1N[C@H]2[C@H](CS[C@H]2CCCCC(=O)*)N1; Lys(Me3) = C[N+](C)(C)CCCC[C@H](N)C(=O)O

Consider “ARTAQTAR[Lys(Me3)]STGGIA [a histone 3 K9(me3) derivative, KDM4C substrate]”, for which, in data set [1], the “K m (substrate)” value is 5.8 ± 0.7 µM, the “k cat (substrate)” value was 0.089 ± 0.004 s⁻¹ and the “k cat/Km (substrate)” value was 15400 ± 1900 M⁻¹ s⁻¹.
With “Biotin-DLEMLAPYIPMDDDFQL [HIF-1α-derived PHD2 substrate]”, the “K m (substrate)” value in data set [2] was 7.3 ± 1.3 µM.
As to “LAELQEQLKAVHEQLAALSQAPVNKPKKKKEKKEKEKKKK [BRD3_463–502, 40-mer peptide fragment derived from human BRD3, JMJD6 substrate, prepared by SPPS]”, in data set [3], the “number of hydroxylation products observed (+16 Da mass shifts)” value is “two” and the “hydroxylation by JMJD6 (in words)” value is “efficiently hydroxylated by isolated recombinant JMJD6; also recorded: multiple hydroxylations”. Also, in data set [4] (BRD peptide substrate varied, 0.05 μM full-length His6-JMJD6, 2OG 200 μM, FAS 2 μM, LAA 100 μM, 50 mM Tris pH 7.5, ambient temperature, mono-hydroxylation, substrate inhibition fit, mean ± SD n = 3), the “apparent maximum velocity v^app max” value amounted to 5.2 ± 1.3 nM/s. In addition, in data set [4] (setting [7]), the K m was 1.2 ± 0.4 µM. In data set [4] (setting [8]), the “turnover number kcat (k^app cat)” value is 0.10 ± 0.02 s⁻¹ and the “catalytic efficiency kcat/Km” value stood at 87000 ± 38000 M⁻¹ s⁻¹. The “kcat/Km compared with BRD4_511–550 (fold less)” value in data set [4] (SPE-MS, JMJD6 0.05 μM) is reported as around 2 fold. For the same substance, the “substrate inhibition of JMJD6 catalysis” value in data set [4] is listed as “inhibit JMJD6 catalysis”. Besides, the “retention on SPE cartridge” value in data set [5] is recorded as “efficiently retained on a C4 SPE cartridge”.
Consider “LAELQEQLRAVHEQLAALSQGPISKPKRKREKKEKKKKRK [BRD2_520–559, 40-mer peptide fragment derived from human BRD2, JMJD6 substrate, prepared by SPPS]”, for which, in data set [3], the “number of hydroxylation products observed (+16 Da mass shifts)” value is “three” and the “hydroxylation by JMJD6 (in words)” value is “efficiently hydroxylated by isolated recombinant JMJD6; also recorded: multiple hydroxylations”. Also, the K m in data set [4] (setting [7]) is 0.89 ± 0.33 µM. Moreover, in data set [4] (setting [8]), the “turnover number kcat (k^app cat)” value was 0.24 ± 0.05 s⁻¹ and the “catalytic efficiency kcat/Km” value is 270000 ± 110000 M⁻¹ s⁻¹. Also, in data set [4], the “substrate inhibition of JMJD6 catalysis” value is “inhibit JMJD6 catalysis”. In data set [5], the “retention on SPE cartridge” value is recorded as “efficiently retained on a C4 SPE cartridge”.
As for RPL8_205–224: NO66 substrate, the “K m (substrate)” value in data set [6] was 19.1 ± 6.3 µM.
